Measured values: article PMC11714206, “Massively Parallel Screening of Toll/Interleukin‐1 Receptor (TIR)‐Derived Peptides Reveals Multiple Toll‐Like Receptors (TLRs)‐Targeting Immunomodulatory Peptides” (Advanced Science, 2024)
Blank lines part the entries; values can stand above or below the sequence they belong to.

Biological target: T1, MyD88^TIR (Homo sapiens, UniProt Q99836)
T1 construct: MyD88 (residues 148–296); 6xHis; made in house; host or cells: E. coli BL21 (DE3)
Experiment: T‐Surf phage library (P8 and P3) selection against MyD88^TIR, four rounds, NGS read counts
Format: binding
Details: for P8_MyD88 Rank (after) / P8_MyD88 Rank (before): P8 library; for Population: 4th round of selection against MyD88 TIR, share of NGS reads; for P3_MyD88 Rank (after) / P3_MyD88 Rank (before): P3 library
How it was run: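 Read counts come from NGS of phage pools after the fourth selection round, barcoded by 20-cycle PCR and filtered for quality ≥30. Each round: phage incubated 1 h at RT on immobilised TIR protein (5 µg mL^−1, BSA-blocked), washed, HCl-eluted and amplified in E. coli TG1.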

[1] = selection against MyD88, rank by count after grouping
[2] = selection against MyD88, rank by count before grouping
[3] = selection against MyD88, rank after grouping
[4] = selection against MyD88, rank before grouping
[5] = P8_MyD88: rank by count after grouping
[6] = P8_MyD88: rank by count before grouping
[7] = P8_MyD88 pool: P8 T-Surf phage library
[8] = P3_MyD88: rank by count after grouping
[9] = P3_MyD88: rank by count before grouping
[10] = selection against MyD88 TIR, rank by count after grouping
[11] = selection against MyD88 TIR, rank by count before grouping
[12] = P3_MyD88 pool: P3 T-Surf phage library
[13] = P8_MyD88: rank by NGS read count after grouping
[14] = P8_MyD88: rank by NGS read count before grouping
[15] = 4R selection against MyD88, rank after grouping
[16] = 4R selection against MyD88, rank before grouping

T1 sequence (Q99836 148-296): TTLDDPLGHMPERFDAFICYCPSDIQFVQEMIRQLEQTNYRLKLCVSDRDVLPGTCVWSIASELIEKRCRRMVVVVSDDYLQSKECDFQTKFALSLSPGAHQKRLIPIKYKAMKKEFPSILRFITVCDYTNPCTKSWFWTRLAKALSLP

Sequence: KIARCMIFGVFWKAP
P8_MyD88 Rank (after) [3]: 527
P8_MyD88 Rank (before) [4]: 3897

Sequence: DPQDLEWFYERPVSLF
P8_MyD88 Rank (after) [10]: 259
P8_MyD88 Rank (before) [11]: 2853

Sequence: SSLREGLWRLLELSKK
Population [12]: 0.00291%

Sequence: DWVWDYLLQSGRPSG
Rank (after) [13]: 932
Rank (before) [14]: 2451

Sequence: WFWDKLKYALHRNRI
Rank (after) [8]: 406
Rank (before) [9]: 1414

Sequence: EWMREQRRPALKERLP
P3_MyD88 Rank (after) [15]: 599
P3_MyD88 Rank (before) [16]: 2180

Sequence: LGYHWVDWEYCVGIED
Rank (after) [5]: 479
Rank (before) [6]: 3233

Sequence: NQLRNAQTAAANLSGW
P3_MyD88 Rank (after) [10]: 233
P3_MyD88 Rank (before) [11]: 3463

Sequence: SELSVVDDGSVSPLGM
Rank (after) [8]: 472
Rank (before) [9]: 3068

Sequence: SMMPSSDFWKELALAL
P8_MyD88 Rank (after) [10]: 217
P8_MyD88 Rank (before) [11]: 369

Sequence: WDFASKMEQFLDRLYY
Rank (after) [13]: 893
Rank (before) [14]: 1632

Sequence: YASSSWYRFELVDILW
Rank (after) [13]: 973
Rank (before) [14]: 1874

Sequence: YLLLSEFHSELALRPL
P8_MyD88 Rank (after) [15]: 637
P8_MyD88 Rank (before) [16]: 2016

Sequence: YASSSWALDELLQILW
P8_MyD88 Rank (after) [1]: 720
P8_MyD88 Rank (before) [2]: 1891

Sequence: PQDLGWFYERLISQILK
Rank (after) [5]: 386
Rank (before) [6]: 1201

Sequence: DPQGVDLFYERQVSLL
P8_MyD88 Rank (after) [3]: 567
P8_MyD88 Rank (before) [4]: 2675

Sequence: HWIEWEYFVGIEEHIK
Rank (after) [5]: 397
Rank (before) [6]: 3541

Sequence: EWVKNSLLQYLDSQFE
Rank (after) [5]: 151
Rank (before) [6]: 166
Population [7]: 0.00886%

Sequence: SSFREGLLRLLELNKK
Rank (after) [8]: 139
Rank (before) [9]: 3237

Sequence: APQDLEWFYERLVSLIL
Rank (after) [5]: 431
Rank (before) [6]: 2322

Sequence: DSWTSAALYEALHALL
Rank (after) [5]: 156
Rank (before) [6]: 172
Population [7]: 0.00809%

Sequence: DFSHFWLFEARGDA
Rank (after) [5]: 387
Rank (before) [6]: 2381

Sequence: SSFLQHPWRLQKLSKK
Rank (after) [8]: 399
Rank (before) [9]: 3123

Sequence: DPQDLDWLYERLVRLF
P8_MyD88 Rank (after) [10]: 238
P8_MyD88 Rank (before) [11]: 2828

Sequence: SSSREGLWRLLELSKK
Population [12]: 0.0032%

Sequence: LVALEISKKMTIFATI
P3_MyD88 Rank (after) [10]: 228
P3_MyD88 Rank (before) [11]: 2269

Sequence: HLIQQGIELHLHQLHL
Rank (after) [13]: 941
Rank (before) [14]: 3556

Sequence: KEVEGWRDALTKAANL
Rank (after) [8]: 138
Rank (before) [9]: 3640

Sequence: WVFQTLYSTLEDEYAF
P8_MyD88 Rank (after) [10]: 228
P8_MyD88 Rank (before) [11]: 372

Sequence: MDYLLRILHSSNFTTF
Rank (after) [5]: 102
Rank (before) [6]: 105
Population [7]: 0.022%

Now from value to sequence:

P8_MyD88 Rank (after) [1]: 736
P8_MyD88 Rank (before) [2]: 3409
Sequence: PRDLEWFYEHLVSLIL

P8_MyD88 Rank (after) [1]: 732
P8_MyD88 Rank (before) [2]: 2830
Sequence: DPQDLDWIYERLVCLF

Rank (after) [5]: 130
Rank (before) [6]: 143
Population [7]: 0.0116%
Sequence: LFWANLRAALQGDLPY

P8_MyD88 Rank (after) [1]: 682
P8_MyD88 Rank (before) [2]: 1660
Sequence: SGQAVTEDKLGWLSNP

Rank (after) [8]: 427
Rank (before) [9]: 1521
Sequence: YAFTGHLHRDLVQRGL

Rank (after) [5]: 150
Rank (before) [6]: 186
Population [7]: 0.00694%
Sequence: PQDLQWFYERLVSLI

P8_MyD88 Rank (after) [1]: 768
P8_MyD88 Rank (before) [2]: 2488
Sequence: DWEWEYLRPNLEGTAG

Population [12]: 0.00408%
Sequence: SSFREGMWRLLELSKK

P3_MyD88 Rank (after) [10]: 246
P3_MyD88 Rank (before) [11]: 1438
Sequence: YYLDTSHHRKQSGEFG

P3_MyD88 Rank (after) [10]: 277
P3_MyD88 Rank (before) [11]: 2580
Sequence: RLLKWKEALHQFHSLVG

P3_MyD88 Rank (after) [15]: 582
P3_MyD88 Rank (before) [16]: 3135
Sequence: SSFRDDLWRLLELSKK

P3_MyD88 Rank (after) [3]: 576
P3_MyD88 Rank (before) [4]: 3706
Sequence: KLDSARMRKVQRLRET

P3_MyD88 Rank (after) [3]: 514
P3_MyD88 Rank (before) [4]: 1697
Sequence: YTALTNSSFHTFRDNH

Rank (after) [5]: 183
Rank (before) [6]: 466
Sequence: DPQDLDWFYERLVSQM

P8_MyD88 Rank (after) [15]: 604
P8_MyD88 Rank (before) [16]: 2278
Sequence: GPQELEWCYERLVTKF

P8_MyD88 Rank (after) [3]: 542
P8_MyD88 Rank (before) [4]: 3800
Sequence: SIWWILNELQEILNYQ

P3_MyD88 Rank (after) [1]: 737
P3_MyD88 Rank (before) [2]: 3250
Sequence: SSFHEGLWRMLELSKK

Rank (after) [5]: 94
Rank (before) [6]: 478
Sequence: EPQDLDWFYERLVSLL

Population [7]: 0.0224%
Sequence: ELDFSHFWLFEARGDA

P3_MyD88 Rank (after) [3]: 497
P3_MyD88 Rank (before) [4]: 1664
Sequence: YTALTNSGFHIFSANG
